Laboratory results from the supplement of paper PMC10307832.

What was measured:
Test in all cases: relative viability (nuclei count vs DMSO), 5 days (fraction); higher = more cells survive
ChaGo-K-1 = system: ChaGo-K-1
Method in brief: (§1)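 Lung cancer cell lines, seeded in 1536-well plates, were treated the following day by pin tool with a single drug or with five library-drug doses (not always all listed) in √10 steps on top of a fixed anchor-drug dose. Cells were fixed and nuclei stained in one step after 5 days, and nuclei were counted. Relative viability is the nuclei count for treated wells divided by that for vehicle wells, reported as medians of duplicate plates.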

HCC-827 = system: HCC-827
Method in brief: as §1

HCC-78 = system: HCC-78
Method in brief: as §1

NCI-H2023 = system: NCI-H2023
Method in brief: as §1

NCI-H1792 = system: NCI-H1792
Method in brief: as §1

NCI-H727 = system: NCI-H727
Method in brief: as §1

NCI-H2342 = system: NCI-H2342
Method in brief: as §1

NCI-H2170 = system: NCI-H2170
Method in brief: as §1

NCI-H1437 = system: NCI-H1437
Method in brief: as §1

NCI-H2126 = system: NCI-H2126
Method in brief: as §1

NCI-H596 = system: NCI-H596
Method in brief: as §1

LCLC-97TM1 = system: LCLC-97TM1
Method in brief: as §1

NCI-H2405 = system: NCI-H2405
Method in brief: as §1

NCI-H1755 = system: NCI-H1755
Method in brief: as §1

NCI-H2085 = system: NCI-H2085
Method in brief: as §1

NCI-H441 = system: NCI-H441
Method in brief: as §1

SK-MES-1 = system: SK-MES-1
Method in brief: as §1

201T = system: 201T
Method in brief: as §1

NCI-H650 = system: NCI-H650
Method in brief: as §1

RERF-LC-KJ = system: RERF-LC-KJ
Method in brief: as §1

LCLC-103H = system: LCLC-103H
Method in brief: as §1

LOU-NH91 = system: LOU-NH91
Method in brief: as §1

## COCC1(CO)C(=O)C2CCN1CC2 (stereo not given) [PRIMA-1MET] + CC(=O)Nc1cccc(-n2c(=O)n(C3CC3)c(=O)c3c(Nc4ccc(I)cc4F)n(C)c(=O)c(C)c32)c1 [Trametinib] (partner 0.02 µM)
ChaGo-K-1; first compound 0.2 µM
  relative viability: 0.996
ChaGo-K-1; first compound 0.6325 µM
  relative viability: 0.735
ChaGo-K-1; first compound 2 µM
  relative viability: 0.849
ChaGo-K-1; first compound 6.325 µM
  relative viability: 0.891
ChaGo-K-1; first compound 20 µM
  relative viability: 0.857
HCC-827; first compound 0.2 µM
  relative viability: 0.443
HCC-827; first compound 0.6325 µM
  relative viability: 0.523
HCC-827; first compound 2 µM
  relative viability: 0.474
HCC-827; first compound 6.325 µM
  relative viability: 0.461
HCC-827; first compound 20 µM
  relative viability: 0.481
HCC-78; first compound 0.2 µM
  relative viability: 0.676
HCC-78; first compound 0.6325 µM
  relative viability: 0.708
HCC-78; first compound 2 µM
  relative viability: 0.478
HCC-78; first compound 6.325 µM
  relative viability: 0.596
HCC-78; first compound 20 µM
  relative viability: 0.331
NCI-H2023; first compound 0.2 µM
  relative viability: 0.681
NCI-H2023; first compound 0.6325 µM
  relative viability: 0.556
NCI-H2023; first compound 2 µM
  relative viability: 0.603
NCI-H2023; first compound 6.325 µM
  relative viability: 0.711
NCI-H2023; first compound 20 µM
  relative viability: 0.546
NCI-H1792; first compound 0.2 µM
  relative viability: 0.413
NCI-H1792; first compound 6.325 µM
  relative viability: 0.434
NCI-H1792; first compound 20 µM
  relative viability: 0.54
NCI-H727; first compound 0.2 µM
  relative viability: 0.423
NCI-H727; first compound 0.6325 µM
  relative viability: 0.322
NCI-H727; first compound 6.325 µM
  relative viability: 0.413
NCI-H727; first compound 20 µM
  relative viability: 0.377
NCI-H2342; first compound 0.2 µM
  relative viability: 0.77
NCI-H2342; first compound 0.6325 µM
  relative viability: 1.06
NCI-H2342; first compound 6.325 µM
  relative viability: 0.755
NCI-H2342; first compound 20 µM
  relative viability: 0.67
NCI-H2170; first compound 0.2 µM
  relative viability: 0.914
NCI-H2170; first compound 0.6325 µM
  relative viability: 0.911
NCI-H2170; first compound 2 µM
  relative viability: 0.887
NCI-H2170; first compound 6.325 µM
  relative viability: 0.975
NCI-H2170; first compound 20 µM
  relative viability: 0.964
NCI-H1437; first compound 0.2 µM
  relative viability: 0.631
NCI-H1437; first compound 0.6325 µM
  relative viability: 0.525
NCI-H1437; first compound 2 µM
  relative viability: 0.449
NCI-H1437; first compound 6.325 µM
  relative viability: 0.546
NCI-H1437; first compound 20 µM
  relative viability: 0.479
NCI-H2126; first compound 0.2 µM
  relative viability: 0.604
NCI-H2126; first compound 0.6325 µM
  relative viability: 0.47
NCI-H2126; first compound 2 µM
  relative viability: 0.597
NCI-H2126; first compound 6.325 µM
  relative viability: 0.577
NCI-H2126; first compound 20 µM
  relative viability: 0.543
NCI-H596; first compound 0.2 µM
  relative viability: 0.888
NCI-H596; first compound 0.6325 µM
  relative viability: 0.718
NCI-H596; first compound 2 µM
  relative viability: 0.66
NCI-H596; first compound 6.325 µM
  relative viability: 0.837
NCI-H596; first compound 20 µM
  relative viability: 0.119
LCLC-97TM1; first compound 0.2 µM
  relative viability: 0.133
LCLC-97TM1; first compound 0.6325 µM
  relative viability: 0.163
LCLC-97TM1; first compound 2 µM
  relative viability: 0.179
LCLC-97TM1; first compound 6.325 µM
  relative viability: 0.151
LCLC-97TM1; first compound 20 µM
  relative viability: 0.197
NCI-H2405; first compound 0.2 µM
  relative viability: 0.399
NCI-H2405; first compound 0.6325 µM
  relative viability: 0.598
NCI-H2405; first compound 6.325 µM
  relative viability: 0.463
NCI-H2405; first compound 20 µM
  relative viability: 0.0947
NCI-H1755; first compound 0.2 µM
  relative viability: 0.676
NCI-H1755; first compound 0.6325 µM
  relative viability: 0.729
NCI-H1755; first compound 2 µM
  relative viability: 0.644
NCI-H1755; first compound 6.325 µM
  relative viability: 0.745
NCI-H1755; first compound 20 µM
  relative viability: 0.762
NCI-H2085; first compound 0.2 µM
  relative viability: 0.618
NCI-H2085; first compound 0.6325 µM
  relative viability: 0.61
NCI-H2085; first compound 2 µM
  relative viability: 0.508
NCI-H2085; first compound 6.325 µM
  relative viability: 0.427
NCI-H2085; first compound 20 µM
  relative viability: 0.141
NCI-H441; first compound 0.2 µM
  relative viability: 0.418
NCI-H441; first compound 0.6325 µM
  relative viability: 0.297
NCI-H441; first compound 2 µM
  relative viability: 0.369
NCI-H441; first compound 6.325 µM
  relative viability: 0.399
NCI-H441; first compound 20 µM
  relative viability: 0.267
SK-MES-1; first compound 0.2 µM
  relative viability: 0.609
SK-MES-1; first compound 0.6325 µM
  relative viability: 0.538
SK-MES-1; first compound 2 µM
  relative viability: 0.549
SK-MES-1; first compound 6.325 µM
  relative viability: 0.624
SK-MES-1; first compound 20 µM
  relative viability: 0.592
201T; first compound 0.2 µM
  relative viability: 0.757
201T; first compound 0.6325 µM
  relative viability: 0.74
201T; first compound 2 µM
  relative viability: 0.684
201T; first compound 6.325 µM
  relative viability: 0.749
201T; first compound 20 µM
  relative viability: 0.721
NCI-H650; first compound 0.2 µM
  relative viability: 0.58
NCI-H650; first compound 0.6325 µM
  relative viability: 0.965
NCI-H650; first compound 2 µM
  relative viability: 0.762
NCI-H650; first compound 6.325 µM
  relative viability: 0.833
NCI-H650; first compound 20 µM
  relative viability: 0.0675
RERF-LC-KJ; first compound 0.2 µM
  relative viability: 0.858
RERF-LC-KJ; first compound 0.6325 µM
  relative viability: 0.849
RERF-LC-KJ; first compound 2 µM
  relative viability: 0.821
RERF-LC-KJ; first compound 6.325 µM
  relative viability: 0.951
RERF-LC-KJ; first compound 20 µM
  relative viability: 0.826
LCLC-103H; first compound 0.2 µM
  relative viability: 0.675
LCLC-103H; first compound 0.6325 µM
  relative viability: 0.619
LCLC-103H; first compound 2 µM
  relative viability: 0.604
LCLC-103H; first compound 6.325 µM
  relative viability: 0.655
LCLC-103H; first compound 20 µM
  relative viability: 0.709
LOU-NH91; first compound 0.2 µM
  relative viability: 0.842
LOU-NH91; first compound 0.6325 µM
  relative viability: 0.801
LOU-NH91; first compound 2 µM
  relative viability: 0.793
LOU-NH91; first compound 6.325 µM
  relative viability: 0.831
LOU-NH91; first compound 20 µM
  relative viability: 0.535
